In EP0175171A2, “Use of 3,7,11,15-tetramethyl-2,4,6,10,14-hexadecapentaenoic acid for enhancing the effect of anti-tumour agents” (Eisai Co., Ltd., priority 1984, dated 1986):
In brackets after ≈: the same amount, converted by molar mass. Where a name gives a salt, the structure may show the parent alone.

Columns and labels:
HeLa.S3 cell [1] = assay: Enhancement of cytocidal effect: colony formation of HeLa S3 cells, known carcinostatic drug added simultaneously with the compound of the present invention, 7 days; assay type: cell-based, human; settings: for enhancement of the cytocidal effect of a carcinostatic drug: conclusion in words from the figures of Table 2 (CPM by the S9 mix protocol)
Procedure: Effect of the simultaneous use of a known carcinostatic agent and the compound (I) (Enhancement of cytocidal effect) • (1) Experimental material and procedure • ① Cell: Epithelical cell from human uterocervical cancer, HeLa.S3 cell • ② Cultivation: The cell was cultivated using a culture fluid obtained by adding 10 parts of fetal calf serum to 90 parts of Eagles Minimum Essential Medium in an incuvator having a carbon dioxide concentration controlled to 5% at 37°C. • ③ Drug: The compound of the present invention was added as a solution in dimethyl sulfoxide(DMSO) of a final DMSO concentration of 0.1% to the culture fluid. The clinical injections as shown in Table 1 were added to the culture fluid as a known carcinostatic drug. […] After the cultivation for 7 days, the cells were fixed with methanol and subjected to Giemsa's staining, followed by calculation of the number of colonies containing at least 20 cells under a stereomicroscope. The concentration (ng/mℓ) of the carcinostatic drug required to decrease the ratio of the number of colonies of a treated group to that of an untreated group (control) to 50% were determined and are shown as "IC50".

HeLa.S3 cell [2] = assay: cells; settings: Homo sapiens
Procedure: The clinical injections as shown in Table 1 were added to the culture fluid as a known carcinostatic drug. [formula] • ④ Experimental procedure: 150 epithelical cells from human uterocervical cancer (HeLaS3 cell) were planted in each plastic dish of a diameter of 60 mm. […] After the cultivation for 7 days, the cells were fixed with methanol and subjected to Giemsa's staining, followed by calculation of the number of colonies containing at least 20 cells under a stereomicroscope. The concentration (ng/mℓ) of the carcinostatic drug required to decrease the ratio of the number of colonies of a treated group to that of an untreated group (control) to 50% were determined and are shown as "IC50".

[3] = Toxicological test, oral administration for 14 days; assay type: in vivo; settings: female ICR mice, orally, 14 days, 40, 200 or 400 mg/kg/day
Procedure: The compound of the present invention, 3,7,11,15-tetramethyl-2,4,6,10,14-hexadecapentaenoic acid, was administered orally to each group consisting of six female ICR mice for 14 days at a dosage of 40, 200 or 400 mg/kg/day, respectively, to observe changes in the weight, the mortality or the like.

[4] = Homo sapiens, HeLa S3, compound of the present invention 0 M; listed as 1): based on case where both compound and drug are 0, read-out: IC50 (ng/ml) 0 a)
[5] = Homo sapiens, HeLa S3, compound of the present invention 0 M; listed as 2): based on case where drug is 0 at the same compound concentration, read-out: IC50 (ng/ml) 0 a)
[6] = Homo sapiens, HeLa S3, compound of the present invention 3.2×10^-5 M; listed as 1): based on case where both compound and drug are 0, read-out: IC50 (ng/ml) 3.2×10^-5 d)
[7] = Homo sapiens, HeLa S3, compound of the present invention 3.2×10^-5 M; listed as 2): based on case where compound is 3.2×10^-5 M and drug is 0, read-out: IC50 (ng/ml) 3.2×10^-5 d)
[8] = Homo sapiens, HeLa S3, compound of the present invention 10^-5 M; listed as 1): based on case where both compound and drug are 0, read-out: IC50 (ng/ml) 10^-5 c)
[9] = Homo sapiens, HeLa S3, compound of the present invention 10^-5 M; listed as 2): based on case where compound is 10^-5 M and drug is 0, read-out: IC50 (ng/ml) 10^-5 c)
[10] = Homo sapiens, HeLa S3, compound of the present invention 10^-6 M; listed as 1): based on case where both compound and drug are 0, read-out: IC50 (ng/ml) 10^-6 b)
[11] = Homo sapiens, HeLa S3, compound of the present invention 10^-6 M; listed as 2): based on case where compound is 10^-6 M and drug is 0, read-out: IC50 (ng/ml) 10^-6 b)

Compound | IC50 (HeLa.S3 cell [1]; [4]) | IC50 (HeLa.S3 cell [1]; [5]) | IC50 (HeLa.S3 cell [1]; [6]) | IC50 (HeLa.S3 cell [1]; [7]) | IC50 (HeLa.S3 cell [1]; [8]) | IC50 (HeLa.S3 cell [1]; [9]) | IC50 (HeLa.S3 cell [1]; [10]) | IC50 (HeLa.S3 cell [1]; [11]) | enhancement of the cytocidal effect of a carcinostatic drug (HeLa.S3 cell [1]) | further results
O=c1[nH]cc(F)c(=O)[nH]1 [5-FU, fluorouracil] | 648 ng/mL | 648 ng/mL | 267 ng/mL | 347 ng/mL | 329 ng/mL | 369 ng/mL | 375 ng/mL | 388 ng/mL | particularly remarkable | 
Cc1ncc(CNC(=O)N(CCCl)N=O)c(N)n1 [ACNU, minustine hydrochloride] | 135 ng/mL | 135 ng/mL | 102 ng/mL | 136 ng/mL | 146 ng/mL | 150 ng/mL | 143 ng/mL | 147 ng/mL |  | 
COc1cccc2c1C(=O)c1c(O)c3c(c(O)c1C2=O)C[C@@](O)(C(=O)CO)C[C@@H]3O[C@H]1C[C@H](N)[C@H](O)[C@H](C)O1 [ADM, doxorubicin hydrochloride] | 3.79 ng/mL | 3.79 ng/mL | 1.88 ng/mL | 3.14 ng/mL | 2.43 ng/mL | 4.15 ng/mL | 3.1 ng/mL | 3.51 ng/mL |  | 
Nc1ccn([C@@H]2O[C@H](CO)[C@@H](O)[C@@H]2O)c(=O)n1 [Ara-C, cytarabine] | 10.9 ng/mL | 10.9 ng/mL | 6.25 ng/mL | 11.6 ng/mL | 11.4 ng/mL | 12.4 ng/mL | 11.9 ng/mL | 12 ng/mL |  | 
O=P1(N(CCCl)CCCl)NCCCO1 (centres unmarked) [CPM, cyclophosphamide] |  |  |  |  |  |  |  |  | particularly remarkable | IC50 (HeLa.S3 cell [2]; HeLa S3, read-out: IC50 (ng/ml) 0 a), S9 mix protocol; compound of the present invention 0 M; listed as 1): based on case where both compound and drug are 0): 4210 ng/mL (≈ 16.1 µM); IC50 (HeLa.S3 cell [2]; HeLa S3, read-out: IC50 (ng/ml) 0 a), S9 mix protocol; compound of the present invention 0 M; listed as 2): based on case where drug is 0 at the same compound concentration): 4210 ng/mL (≈ 16.1 µM); IC50 (HeLa.S3 cell [2]; HeLa S3, read-out: IC50 (ng/ml) 3.2×10^-5 d), S9 mix protocol; compound of the present invention 3.2×10^-5 M; listed as 1)): 1220 ng/mL (≈ 4.69 µM); IC50 (HeLa.S3 cell [2]; HeLa S3, read-out: IC50 (ng/ml) 3.2×10^-5 d), S9 mix protocol; compound of the present invention 3.2×10^-5 M; listed as 2)): 2300 ng/mL (≈ 8.82 µM); IC50 (HeLa.S3 cell [2]; HeLa S3, read-out: IC50 (ng/ml) 10^-5 c), S9 mix protocol; compound of the present invention 10^-5 M; listed as 1)): 1330 ng/mL (≈ 5.08 µM); IC50 (HeLa.S3 cell [2]; HeLa S3, read-out: IC50 (ng/ml) 10^-5 c), S9 mix protocol; compound of the present invention 10^-5 M; listed as 2)): 1970 ng/mL (≈ 7.56 µM); IC50 (HeLa.S3 cell [2]; HeLa S3, read-out: IC50 (ng/ml) 10^-6 b), S9 mix protocol; compound of the present invention 10^-6 M; listed as 1)): 3360 ng/mL (≈ 12.9 µM); IC50 (HeLa.S3 cell [2]; HeLa S3, read-out: IC50 (ng/ml) 10^-6 b), S9 mix protocol; compound of the present invention 10^-6 M; listed as 2)): 3160 ng/mL (≈ 12.1 µM)
COC(COC(N)=O)C1=C(N2CC2)C(=O)C(C)=C(N2CC2)C1=O (centres unmarked) [CQ, carboquone] | 0.339 ng/mL | 0.339 ng/mL | 0.076 ng/mL | 0.131 ng/mL | 0.242 ng/mL | 0.275 ng/mL | 0.273 ng/mL | 0.253 ng/mL | particularly remarkable | 
CO[C@@]12[C@H](COC(N)=O)C3=C(C(=O)C(C)=C(N)C3=O)N1C[C@@H]1N[C@@H]12 [MMC, mitomycin] | 1.5 ng/mL | 1.5 ng/mL | 0.4 ng/mL | 0.84 ng/mL | 0.74 ng/mL | 0.82 ng/mL | 1.05 ng/mL | 1.06 ng/mL | particularly remarkable | 
Cc1c(N)nc([C@H](CC(N)=O)NC[C@H](N)C(N)=O)nc1C(=O)N[C@H](C(=O)N[C@H](C)[C@@H](O)[C@H](C)C(=O)N[C@H](C(=O)NCCc1nc(-c2nc(C(=O)NCCCN[C@@H](C)c3ccccc3)cs2)cs1)[C@@H](C)O)[C@@H](O[C@@H]1O[C@@H](CO)[C@@H](O)[C@H](O)[C@@H]1O[C@H]1O[C@H](CO)[C@@H](O)[C@H](OC(N)=O)[C@@H]1O)c1c[nH]cn1.O=S(=O)(O)O [PEP, pepleomycin sulfate] |  |  |  |  |  |  |  |  | particularly remarkable | 
S=P(N1CC1)(N1CC1)N1CC1 [Thio-TEPA, Thio TEPA] |  |  |  |  |  |  |  |  |  | IC50 (HeLa.S3 cell [1]; Homo sapiens, HeLa S3, read-out: IC50 (ng/ml) 0 a), compound of the present invention 0 M; 1): based on case where both compound and drug are 0): 311 ng/mL; IC50 (HeLa.S3 cell [1]; Homo sapiens, HeLa S3, read-out: IC50 (ng/ml) 0 a), compound of the present invention 0 M; listed as 2): based on case where drug is 0 at the same compound concentration): 311 ng/mL; IC50 (HeLa.S3 cell [1]; Homo sapiens, HeLa S3, read-out: IC50 (ng/ml) 3.2×10^-5 d), compound of the present invention 3.2×10^-5 M; 2): based on case where compound is 3.2×10^-5 M and drug is 0): 244 ng/mL; IC50 (HeLa.S3 cell [1]; Homo sapiens, HeLa S3, read-out: IC50 (ng/ml) 3.2×10^-5 d), compound of the present invention 3.2×10^-5 M; listed as 1): based on case where both compound and drug are 0): 274 ng/mL; IC50 (HeLa.S3 cell [1]; Homo sapiens, HeLa S3, read-out: IC50 (ng/ml) 10^-5 c), compound of the present invention 10^-5 M; listed as 1): based on case where both compound and drug are 0): 299 ng/mL; IC50 (HeLa.S3 cell [1]; Homo sapiens, HeLa S3, read-out: IC50 (ng/ml) 10^-5 c), compound of the present invention 10^-5 M; listed as 2): based on case where compound is 10^-5 M and drug is 0): 319 ng/mL; IC50 (HeLa.S3 cell [1]; Homo sapiens, HeLa S3, read-out: IC50 (ng/ml) 10^-6 b), compound of the present invention 10^-6 M; 2): based on case where compound is 10^-6 M and drug is 0): 291 ng/mL; IC50 (HeLa.S3 cell [1]; Homo sapiens, HeLa S3, read-out: IC50 (ng/ml) 10^-6 b), compound of the present invention 10^-6 M; listed as 1): based on case where both compound and drug are 0): 274 ng/mL
CC[C@]1(O)C[C@H]2CN(CCc3c([nH]c4ccccc34)[C@@](C(=O)OC)(c3cc4c(cc3OC)N(C=O)[C@H]3[C@@](O)(C(=O)OC)[C@H](OC(C)=O)[C@]5(CC)C=CCN6CC[C@]43[C@@H]65)C2)C1 [VCR, vincristine sulfate] | 5.5 ng/mL | 5.5 ng/mL | 2.63 ng/mL | 5.65 ng/mL | 6.38 ng/mL | 7.7 ng/mL | 7.44 ng/mL | 7.45 ng/mL |  | 
CC(C)=CCCC(C)=CCCC(C)=CC=CC(C)=CC(=O)O [compound of the present invention, 3,7,11,15-tetramethyl-2,4,6,10,14-hexadecapentaenoic acid] |  |  |  |  |  |  |  |  | synergisticly enhances the cytocidal effect of a carcinostatic drug | mortality [3]: No mice died
bleomycin hydrochloride [BLM] |  |  |  |  |  |  |  |  | particularly remarkable | 
